Assay results from patent US20140373438A1, “Method for Thinning Fruit” (BAYER CROPSCIENCE AG, priority 2001, published 2014).
Where two headings read alike, the source gives them in different places.

Columns and labels:
[1] = test system: young plant organs (leaves and fruits); details: applied, preferably sprayed, together with the thinning formulations
apple varieties = assay: Plant tolerance by visual scoring in thinning experiments; assay type: in vivo; details: application rates 500 mg/l and 700 mg/l
Procedure: According to visual scoring, formulations comprising […] metamitron show no or only minimal damage when used in thinning experiments on a wide range of apple varieties, while formulations comprising 700 mg/l metamitron cause minimal to clearly discernable damage under identical conditions.

[2] = test system: "Golden Delicious" apple variety; details: 7 days post-flowering, standard 98 g, cited from earlier work
plants = details: use for fruit thinning, J. Amer. Soc. Hort. Sci. 115(1): 14-19 (1990); cited from earlier work

With `O=C[O-].O=C[O-].[Ca+2]` [calcium formate] the plant intolerance symptoms [1] was “plant intolerance symptoms were not observed”.
In the case of `Cc1nnc(-c2ccccc2)c(=O)n1N` [metamitron], the “plant damage at the application rates of Guzewski” value (apple varieties) is given as “plant damage (foliar necroses) can be observed”, the fruit weight ([2]; application rate 500 mg/l) is given as 150 g and the fruit weight ([2]; application rate 700 mg/l) is given as 180 g.
In the case of `CSc1nnc(C(C)(C)C)c(=O)n1N` [metribuzin], the plant tolerance (plants) is listed as “unsatisfactory”.
